Data published in patent US20170173186A9, “MURINE WOUND MODEL FOR TESTING PATHOGEN VIRUENCE AND THERAPEUTIC EFFICACY” (priority 2013, published 2017).
Values after ≈ are worked out from the molar mass of the structure shown.

Assays:
[1] = system: A. baumannii AB5075; assay: Murine dorsal wound infection model (neutropenic BALB/c mice), wound area measurement and gross pathology; format: in vivo, Acinetobacter baumannii
[2] = system: A. baumannii AB5075; assay: Murine dorsal wound infection model, percent weight change; format: in vivo, Acinetobacter baumannii; details: for median loss of infection-day body weight: Day 1 post-infection; for maximal median loss of infection-day body weight: maximal loss over days 1 through 6 post-infection; for duration of significantly less weight loss than placebo: post-infection, Kruskal-Wallis test followed by Dunn's post-test
Protocol: All procedures were performed in accordance with protocol IB02-10 that was approved by the Walter Reed Army Institute of Research (WRAIR)/Navy Medical Research Center (NMRC) Institutional Animal Care and Use Committee (Silver Spring, Md.). Mice received 150 mg/kg and 100 mg/kg cyclophosphamide intraperitoneal (IP) injections, before wounding and infection, on days −4 and −1, respectively (22, 24). On Day 0, the day of wounding and inoculum, mice were anesthetized with ketamine 130 mg/kg (KETASET®, Fort Dodge Animal Health, Fort Dodge, Iowa), xylazine 10 mg/kg (ANASED®, Lloyd Inc. Shenandoah, Iowa), and buprenorphine 0.05 mg/kg (Hospira Inc., Lake Forest, Ill.) injections. Hair was clipped from the cervical to mid-lumbar dorsum, and the skin scrubbed with iodine solution followed by an ethanol rinse. A 6.0 mm disposable skin biopsy punch (VisiPunch, Huot Instruments, LLC, Menomonee Falls, Wis.) was used to create a full-thickness skin defect overlying thoracic spinal column and the adjacent musculature. Twenty-five μL containing 5.0×10^4 AB5075 cells in a PBS suspension were pipetted into the wound, and allowed to absorb for three minutes. A circular cutout (30 mm diameter) of transparent dressing (TEGADERM™Roll, 3M Health Care, St. Paul, Minn.) was placed over the wound and secured with tissue adhesive (VETBOND™, 3M Animal Care, St. Paul, Minn.). […] However, the size of the wound was increased to 6 mm in order to facilitate subsequent punch biopsies to measure bacterial burden in the wound tissue.
(§1) Beginning four hours post-inoculation, mice were treated with either rifampin at 25 mg/kg IP injection once daily, doxycycline 25 mg/kg IP injection twice daily, or an equivalent vehicle control over the course of a six day treatment period (25, 26). On Day 7 the transparent dressing was removed, treatment discontinued, and the wound monitored for closure through Day 25.
All statistical analyses were carried out using Graphpad Prism software. […] CFU burdens were compared via the Kruskal-Wallis test followed by Dunn's multiple comparison tests. All results were considered significant if p<0.05.

[3] = system: A. baumannii AB5075; assay: Murine dorsal wound infection model, CFU burden in wound tissue (4 mm biopsy punch); format: in vivo, Acinetobacter baumannii
[4] = system: A. baumannii AB5075; assay: Murine dorsal wound infection model, PNA-FISH examination of AB5075 localization in wound tissue; format: in vivo, Acinetobacter baumannii; details: Day 1
Protocol: All procedures were performed in accordance with protocol IB02-10 that was approved by the Walter Reed Army Institute of Research (WRAIR)/Navy Medical Research Center (NMRC) Institutional Animal Care and Use Committee (Silver Spring, Md.). Mice received 150 mg/kg and 100 mg/kg cyclophosphamide intraperitoneal (IP) injections, before wounding and infection, on days −4 and −1, respectively (22, 24). On Day 0, the day of wounding and inoculum, mice were anesthetized with ketamine 130 mg/kg (KETASET®, Fort Dodge Animal Health, Fort Dodge, Iowa), xylazine 10 mg/kg (ANASED®, Lloyd Inc. Shenandoah, Iowa), and buprenorphine 0.05 mg/kg (Hospira Inc., Lake Forest, Ill.) injections. […]
as §1
One mouse from each treatment group (placebo, rifampin, and doxycycline) and from representative time points (Days 1, 3, and 7) were sacrificed in order to characterize the dissemination of AB5075 within wound tissue via peptide nucleic acid fluorescence in situ hybridization (PNA-FISH) (33). […]

[5] = system: A. baumannii AB5075; assay: Murine dorsal wound infection model, SEM analysis of biofilm on occlusive dressings and wound tissue; format: in vivo, Acinetobacter baumannii
[6] = system: A. baumannii AB5075; assay: Murine dorsal wound infection model, time course histopathology of wounds (H&E); format: in vivo, Acinetobacter baumannii
[7] = system: A. baumannii AB5075; details: cited from earlier work
[8] = Day 3 post-infection, BALB/c mice, IP treatment from 4 h post-inoculation (rifampin 25 mg/kg once daily, doxycycline 25 mg/kg twice daily)
[9] = Day 8 post-infection, one day after occlusive dressing removed, six day IP treatment
[10] = Day 15 post-infection, six day IP treatment
[11] = Day 21 post-infection, six day IP treatment

| Compound | median wound size [1, 8] | median wound size [1, 9] | median wound size [1, 10] | median wound size [1, 11] | median loss of infection-day body weight [2] | maximal median loss of infection-day body weight [2] | duration of significantly less weight loss than placebo [2] | median CFU burden ([3]; 3 days post-infection) | median CFU burden ([3]; Day 7 post-infection) | median CFU burden ([3]; after 24 hours of infection) | reduction of median CFU burden versus placebo ([3]; after 24 hours of infection) | A. baumannii cells in wound bed by Acinetobacter-specific PNA probe [4] | biofilm on occlusive dressing by SEM ([5]; Day 3 (rifampin: Days 3 or 7) post-infection) | bacteria on occlusive dressing by SEM ([5]; one day post-infection) | histopathology of wound (H&E) ([6]; Day 15) | histopathology of wound (H&E) ([6]; Day 23) | MIC [7] |
| --- | --- | --- | --- | --- | --- | --- | --- | --- | --- | --- | --- | --- | --- | --- | --- | --- | --- |
| C[C@H]1c2cccc(O)c2C(=O)C2=C(O)[C@]3(O)C(=O)C(C(N)=O)=C(O)[C@@H](N(C)C)[C@@H]3[C@@H](O)[C@@H]21 [doxycycline] | 31.0 mm^2 | 29.0 mm^2 | 2.0 mm^2 | 0.0 mm^2 | 5.3% | 11.8% | 4 days | 5.0×10^4 CFU per 4 mm tissue biopsy punch | 6.2×10^5 CFU per 4 mm tissue biopsy punch | 5.9×10^5 CFU per 4 mm tissue biopsy punch | – | – | – | – | – | – | – |
| CO[C@H]1/C=C/O[C@@]2(C)Oc3c(C)c(O)c4c(O)c(c(/C=N/N5CCN(C)CC5)c(O)c4c3C2=O)NC(=O)/C(C)=C\C=C\[C@H](C)[C@H](O)[C@@H](C)[C@@H](O)[C@@H](C)[C@H](OC(C)=O)[C@@H]1C [rifampin] | 35.0 mm^2 | 34.5 mm^2 | 5.5 mm^2 | 0.0 mm^2 | 6.7% | 6.8% | 5 days | 4.7×10^4 CFU per 4 mm tissue biopsy punch | 6.1×10^5 CFU per 4 mm tissue biopsy punch | 5.7×10^5 CFU per 4 mm tissue biopsy punch | 1 log | clearance of A. baumannii cells below the level of detection at all levels of the wound bed | no biofilm formation was observed on dressings | no substantial amount of bacteria observed on the dressing | re-epithelization over the wound was observed | signs of contractile healing and re-epithelized wound beds | 4.0 µg/mL (≈ 4.86 µM) |
